From patent publication US7423017B2, “Method for treating cartilage disorders” (Genentech, Inc., priority 1997, dated 2008)
Entries after “also recorded” stand apart in the source; their conditions may differ. Positions of bridges follow the written chain, without caps; N, C: chain ends. Residues, ends and D or L forms follow the SMILES beside them. No end group written: not given here.

Columns and labels:
IGFBP-3 [1] = target: T1, IGFBP-3 (Homo sapiens, UniProt P17936); assay: competitive phage ELISA of IGF-1 mutants, IGFBP-3; format: binding; conditions: phage display, soluble IGFBP-3 competitor
T1 construct: made in house
T1 sequence (P17936 28-291): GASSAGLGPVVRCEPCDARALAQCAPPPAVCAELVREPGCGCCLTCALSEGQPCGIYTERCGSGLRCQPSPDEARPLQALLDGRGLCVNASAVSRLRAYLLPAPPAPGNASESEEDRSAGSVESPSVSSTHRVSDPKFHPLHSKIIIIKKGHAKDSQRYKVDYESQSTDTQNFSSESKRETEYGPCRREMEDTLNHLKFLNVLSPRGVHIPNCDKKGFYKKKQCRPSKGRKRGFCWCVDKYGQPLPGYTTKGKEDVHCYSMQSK
How it was run: (§1)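 Alanine-scan IGF-1 mutants on phage competed with soluble IGFBP-1 or IGFBP-3 (threefold dilutions over six logs, from 5 μM and 500 nM respectively) for binding to plates coated with 1 μg/ml of the same protein in PBS pH 7.2. Incubation was 1 h at room temperature in 0.5% Tween 20/PBS. Bound phage was detected by anti-phage/HRP ELISA; IC50 is the mean±SD of at least two clones.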

IGFBP-1 [2] = target: T2, IGFBP-1 (Homo sapiens, UniProt P08833); conditions: cited from earlier work
T2 sequence (P08833 26-259): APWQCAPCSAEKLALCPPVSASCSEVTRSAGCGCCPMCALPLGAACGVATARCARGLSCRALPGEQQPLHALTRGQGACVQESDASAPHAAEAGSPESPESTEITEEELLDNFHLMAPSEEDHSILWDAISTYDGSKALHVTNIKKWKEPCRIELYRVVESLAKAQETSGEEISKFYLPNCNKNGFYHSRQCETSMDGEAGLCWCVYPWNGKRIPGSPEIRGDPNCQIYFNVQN

IGFBP-1 [3] = target: T2, IGFBP-1; assay: competitive phage ELISA of IGF-1 mutants, IGFBP-1; format: binding; parameters: made in house; host or cells: CHO cells; conditions: phage display, soluble IGFBP-1 competitor
How it was run: as §1

IGFBP-1 [4] = assay: competitive phage ELISA of IGF-1 mutants, IGFBP-1; format: binding, human; conditions: relative IC50 IGFBP-1/relative IC50 IGFBP-3
How it was run: as §1

IGFBP-1 [5] = target: T2, IGFBP-1; assay: biotinylated-IGFBP-1 ELISA plate assay of IGF-I:IGFBP-1 inhibition; format: binding; parameters: made in house; host or cells: CHO cells
Source text: A second series of peptides made use of non-natural amino acids to probe whether other structural features such as an added methyl group at the alpha carbon, or an isomer (D-alanine) could affect peptide binding to IGFBP-1.
BP1-16 (SEQ ID NO:35), a 13-residue version of BP1-01 (lacking the C-terminal Gly), had similar affinity to that of BP1-01. Substitutions at the N-terminus or C-terminus yielded affinity improvements.

[6] = test system: human articular cartilage explants; assay: human articular cartilage explants from diseased joints: matrix synthesis (35S-sulfate uptake); format: cell-based; conditions: IGF-1 40 ng/ml; peptide 0.1 mg/ml
IGFBP-1 [7] = target: T2, IGFBP-1; assay: KIRA cell-based assay of IGF-like activity displaced by peptides from IGF-1/IGFBP-1; conditions: 2 nM IGF-1, […] IGFBP-1
Description: A cell-based (KIRA) assay was previously described for measuring the amount of IGF-like activity displaced by peptides from mixtures of IGF-1 and binding proteins (Lowman et al., supra, 1998; WO 98/45427, supra). The KIRA assay was used to compare in vitro bioactivity of BP1-16, BP1-02, BP1-25, and BP1-40. […] IGF-1 and peptide were mixed and added to cells expressing IGF receptor for 30 min, then IGFBP-1 was added for an additional 1 h.

[8] = test system: human articular cartilage explants; assay: human articular cartilage explants: matrix breakdown (proteoglycan release); format: cell-based; conditions: peptide 0.1 mg/ml
Description: The metacarpophalangeal joint of a six-month old pig was cultured as described above for bovine articular cartilage in Example 8. This explant was cultured in media alone or in media with D12K, D12R, or wild-type IGF-1 (at 10 nM) alone or in the presence of IL-1α at 1 ng/ml, as described above. Human explants were from patients undergoing joint replacement surgery. Articular cartilage was harvested, aliquoted (40-45 mg/tube) and cultured as above. […] Fresh media was added on days 0, 1, 2, and 3. Matrix breakdown was determined by measuring the amount of proteoglycans in the media using the DMMB assay as set forth above. Matrix (proteoglycan) synthesis was determined by measuring ^35S-sulfate uptake as set forth above.
Human articular cartilage explants were cultured in media or treated with IGF-1 by itself or in combination with either BP3-40 or BP3-15 at 0.1 mg/ml as set forth above. Matrix breakdown was determined by measuring the release of proteoglycans into media as described above. Matrix synthesis was determined by counting the amount of ^35S-sulfate incorporated into the cartilage tissue as described above.

IGFBP-3 [9] = assay: displacement of 125I-IGF-1 from IGFBPs in human serum, size-exclusion chromatography; format: binding; conditions: peptide at 0.2 mM
Description: This Example tests an IGFBP-3-specific peptide, BP3-15, for its ability to block the binding of ^125I-IGF-1 in human serum. Human serum was incubated with ^125I-IGF-1 ± the peptide and the amount of tracer bound to IGFBPs via size-exclusion chromatography was measured.

IGFBP-3 [10] = target: T1, IGFBP-3; assay: BIACORE competition assay: IGFBP-3 binding to immobilized IGF-1; conditions: IGF-1 inhibition; wt = BP3-01-ox
Description: IGF-1 was immobilized on a dextran chip for inhibition assays using a BIACORE™ 2000 surface-plasmon-resonance device (BIAcore, Inc., Piscataway, N.J.) to measure free binding protein. IGF-1 was biotinylated as described above, and injected over a chip to which streptavidin had been coupled (BIAcore, Inc.) to give 400 to 800 RU (response units) of immobilized IGF-1. […] Serial dilutions of peptide were mixed with a constant concentration (40 nM) of IGFBP-3. After incubation for >1 hour at room temperature, an aliquot of 20 μL was injected at a flow rate of 20 μL/min over the IGF-1 chip. Following the injection, a response reading was taken to measure the relative amount of IGFBP-3 bound to the IGF-1.

## R50A: IGF-1 single alanine mutant
IGFBP-3 [1]
  IC50: 0.64 ± 0.18 nM
IGFBP-1 [2]
  decrease in affinity for IGFBP-1: 3 fold
IGFBP-1 [3]
  IC50: 16.2 ± 1.8 nM
IGFBP-1 [4]
  relative specificity: 2.3

## CRAGPLQHLCEKYF [BP1-24]
IGFBP-1 [5]
  Fold potency reduction IC50 (mut) / IC50 (BP1-16): < 10

## CRAGPLQWLCEKYF-nh2 (CRAGPLQWLCEKYF-NH2; disulfide 1-10 (inferred)) [BP1-16]
[6]
  matrix synthesis, IGF-1 in combination with peptide: enhance anabolism
IGFBP-1 [5]
  Fold potency reduction IC50 (mut) / IC50 (BP1-16): -1-
IGFBP-1 [7]
  EC20 (concentration at which 20% of maximal IGF-1 activity is observed): 150 to 200 nM

## CC(C)C[C@@H]1NC(=O)[C@H](Cc2ccc(O)cc2)NC(=O)[C@H](Cc2c[nH]c3ccccc23)NC(=O)[C@H](CCC(=O)O)NC(=O)[C@H](C)NC(=O)[C@H](C(C)C)NC(=O)[C@@H]2CCCN2C(=O)[C@H](Cc2c[nH]c3ccccc23)NC(=O)[C@@H](NC(=O)[C@@H](NC(=O)[C@H](CCC(=O)O)NC(=O)[C@H](CCC(=O)O)NC(=O)[C@@H](N)CO)C(C)C)CSSC[C@@H](C(=O)N[C@@H](CC(N)=O)C(=O)O)NC1=O [BP3-15] (H-SEEVCWPVAEWYLCN-OH; disulfide 5-14; N-terminus and C-terminus assumed)
[8]
  matrix breakdown, IGF-1 in combination with peptide: appeared to enhance the ability of IGF-1 to decrease matrix breakdown
[6]
  matrix synthesis, IGF-1 in combination with peptide: to stimulate matrix synthesis; also recorded: enhance anabolism
IGFBP-3 [9]
  125I-IGF-1 binding to the 44-KD IGFBPs: did not decrease
  decrease in 125I-IGF-1 associated with the 150-KD IGF/IGFBP-3/ALS complex: ~42%
  increase in the amount of free 125I-IGF-1: 59%
IGFBP-3 [10]
  IC50 (mut) / IC50 (wt): 0.36
